Test results from patent publication US7495098B2, “Extraction of alkaloids from opium” (Mallinckrodt Inc, priority 2004, dated 2009).

How the values were obtained:
[1] = Stability of alkaloids in the acid digest of opium suspension at pH 3.0, room temperature; conditions: pH 3.0, up to 96 hours
Experimental: The purpose of Experiment I was to obtain side-by-side data of the performance of hydrochloric acid in relationship to acetic acid. The acid digestion occurred at room temperature for 96 hours. The opium suspensions were sampled at intervals, and assays were performed to test the rate of extraction of alkaloids from the opium.
The opium was dispersed by adding one liter of deionized water and 238 grams of opium to the blender. The blender was processed on “puree.” This is at 14,046 RPM, or a Reynold's number of 725,791 for two (2) minutes. The slurry was divided between two Erlenmeyer flasks. A tar ball remained in the bottom of the blender. The next step was to add 100 milliliters of water. The blender was then set to “liquefy.” This is at 20,495 RPM, or a Reynold's number of 991,216 for thirty (30) seconds. There was not an even distribution between the two Erlenmeyer flasks. This was followed by returning all of the slurry to the blender and processed on “liquefy” for an additional ten (10) seconds. The slurry was then split between the two Erlenmeyer flasks. The slurry was very frothy in appearance. The pH of each Erlenmeyer flask was adjusted to 3.0. In one Erlenmeyer flask, the pH was adjusted with hydrochloric acid (37%), and in the other Erlemneyer flask, the pH was adjusted with glacial acetic acid. […]

[2] = Alkaloid partition coefficients, pH 3.0 (mixing cylinder liquid extraction of opium filtrate, HPLC assay of layers); type: physicochemical
Excerpt: The next part of the experiment was to test various solvents to identify possible candidates for liquid extraction so that the alkaloids can be separated and purified. There was fifty (50) milliliters of filtrate and fifty (50) milliliters of solvent were charged to one hundred (100) milliliter mixing cylinders. The one hundred (100) milliliter cylinders were shaken for thirty (30) seconds at approximately one (1) shake per second. The one hundred (100) milliliter mixing cylinders were allowed to settle, and the locations of the bottom and top of the rag layer were recorded over time. The results for one trial of the hydrochloric acid extraction of opium is presented in Table 2, and the results of one trial of acetic acid extraction is presented in Table 3. The four solvents used were toluene, hexane, n-butanol (n-BuOH), and isopentyl alcohol (i-C5OH).
After the mixing cylinder studies were completed, the layers were sampled for High Pressure Liquid Chromatography (HPLC) assay and partition coefficients were obtained for each of the systems.

[3] = Alkaloid partition coefficients, pH 9.0 (acetic acid opium extract and organic solvent, equal volumes)
Experimental: Some experiments were conducted with solvents to investigate liquid extraction to purify or separate the alkaloids. In these experiments, the aliquot of solvent layer was allowed to evaporate to dryness prior to diluting to volume with the dilute acetic acid. The aliquots were evaporated in this manner to eliminate the effect of solvents on retention time and the peak shape of the chromatography assays. Partition coefficients were obtained by dividing the concentration of the alkaloid in the organic layer by the concentration of the alkaloid in the aqueous layer. The disappearance of the rag layer following liquid extraction was done by filing a mixing container, e.g., cylinder, with the aqueous solution and the solvent. The mixing container, e.g., cylinder is then sealed with a stopper and shook for a predetermined time interval at a certain rate and then recording the interface levels over time.
The phases were allowed to separate, and aliquots of each layer were taken.

[4] = system BuOH/HCl (n-butanol, hydrochloric acid extract)
[5] = system BuOH/HOAc (n-butanol, acetic acid extract)
[6] = system CHCL3/HCl (chloroform, hydrochloric acid extract)
[7] = system CHCL3/HOAc (chloroform, acetic acid extract)
[8] = system I-pentyl/HCL (isopentyl alcohol, hydrochloric acid extract)
[9] = system I-pentyl/HOAc (isopentyl alcohol, acetic acid extract)

Structure (SMILES)	Stability (loss of alkaloid) in solution [1]	Alkaloid partition coefficient (concentration in organic layer / concentration in aqueous layer) [2, 4]	Alkaloid partition coefficient (concentration in organic layer / concentration in aqueous layer) [2, 5]	Alkaloid partition coefficient (concentration in organic layer / concentration in aqueous layer) [2, 6]	Alkaloid partition coefficient (concentration in organic layer / concentration in aqueous layer) [2, 7]	Alkaloid partition coefficient (concentration in organic layer / concentration in aqueous layer) [2, 8]	Alkaloid partition coefficient (concentration in organic layer / concentration in aqueous layer) [2, 9]	Alkaloid partition coefficient ([3]; system BuOH/HOAc)	Alkaloid partition coefficient ([3]; system Hexane/HOAc)	Alkaloid partition coefficient ([3]; system I-pentyl/HOAc)	Alkaloid partition coefficient ([3]; system Toluene/HOAc)	Portion of morphine originally present that decomposed (after 24 hours, extraction with butanol at pH 9.0 (FIG. 3))	Decomposition during the extraction step (alkaline extraction with n-butanol and i-pentyl alcohol, pH 9.0, room temperature)
COc1ccc2c3c1O[C@H]1[C@@H](O)C=C[C@H]4[C@@H](C2)N(C)CC[C@@]341 [Codeine, codeine]	does not appear to be any significant loss	0.1374	0.2277	0.0074	0.0341	0.0181	0.0319	18.9714	0.0735	19.6646	5.3686		
CN1CC[C@]23c4c5ccc(O)c4O[C@H]2[C@@H](O)C=C[C@H]3[C@H]1C5 [Morphine, morphine]												about half	decomposed
COC1=CC=C2[C@H]3Cc4ccc(OC)c5c4[C@@]2(CCN3C)[C@H]1O5 [Thebaine, thebaine]	does not appear to be any significant loss	0.4312	0.6351	0.5363	1.5273	0.1053	0.1548	34.7434	1.8589	55.5035	154.6710		
